Assay: Measuring pKa value of amino alcohols by titration against NaOH in MDA/KCl
Settings: MDA = Methanol-Dioxane-Acetonitrile, 1:1:1
Protocol: To this clear solution was added 6 μL of con. HCl and stirred well. This solution was titrated against 1 M NaOH solution. NaOH solution was added in 2 (or 4) ml increments. During the addition of each increment of NaOH solution, pH of the solution was recorded using a pH meter until a pH of 12 was measured. The measured titration values were analyzed (graph pad software was used) to determine the first derivative of the volume of NaOH used in the titration. This first derivative value is the pKa of the amino alcohol.
For `C[Si](C[C@@H](O)[C@@H]1CCCN1)(C1CCCCC1)C1CCCCC1` [WV-CA-041-L], the “solubility of sample in MDA mixture” value was “Sample Insoluble in MDA”.
With `C[Si](C[C@@H](O)[C@@H]1CCCCN1)(C1CCCCC1)C1CCCCC1` [WV-CA-045] the “solubility of sample in MDA mixture” value was “Insoluble in MDA mixture”.
In the case of `C[Si](C[C@H](O)[C@H]1CCCN1)(C1CCCCC1)C1CCCCC1` [WV-CA-041-D], the “solubility of sample in MDA mixture” value was “Sample Insoluble in MDA”.
For `C[Si](C[C@H](O)[C@@H]1CCCCN1)(C1CCCCC1)C1CCCCC1` [WV-CA-046], the “solubility of sample in MDA mixture” value was “Insoluble in MDA mixture”.
